Consider 15 compounds from US11219625B2, “Inhibitors of N-linked glycosylation and methods using same” (YALE UNIVERSITY, priority 2015, dated 2022).

One data set relates to N-linked glycosylation. As to the kind of experiment: D54-ERLucT cell based luciferase assay for inhibition of N-linked glycosylation. The note with it: D54-ERLucT cells, luciferase activation. The source says: (§1) The HTS approach using the bioluminescent N-linked glycosylation reporter (CCR 2011) in D54-ERLucT and D54-LucT cells has been previously described (Bennett, et al., Transl Oncol 2013, 6, 382-391). Briefly, the primary cell-based screen detects site occupancy of NLG sequons using a modified luciferase protein translated into the ER. […] The methodology for the primary (D54-ERlucT), secondary (D54-LucT), and tertiary (luciferase inhibition) screens as well and toxicity assays with CelltitreGlo are deposited in Pubchem (AID 588693).
The primary screen was developed in the D54 glioma cell line using a modified P. pyralis luciferase gene (ER-LucT) that is ER translated and glycosylated at three N-linked glycosylation consensus sequences. Glycosylation of the reporter inactivates luciferase enzymatic activity providing a robust methodology to detect inhibition of this process. D54 cells expressing a non-ER translated luciferase (LucT) insensitive to inhibition of N-linked glycoysation were used as a secondary screen for false positives. The primary screen was performed in duplicate and values were normalized to the average of positive control wells (Tunicamycin) minus averaged neutral vehicle treated wells per run. Compounds with replicate activity greater than three standard deviations above the mean average of control wells were selected for further study. A subset of 1,845 compounds met this criterion, and were advanced to simultaneous retesting in both the primary screen and a secondary (false positive) cell-based screen. […] Compounds were further triaged from consideration by consulting the Pubchem bioassay database and deprioritizing compounds showing a promiscuity rate higher than 5% across assays or by removing PAINS scaffolds (Baell, et al., J Med Chem 2010, 53, 2719-2740). Remaining compounds were assessed by medicinal chemistry review to score synthetic tractability and known issues with instability, poor solubility, or toxicity. This analysis yielded 39 compounds that were tested in a cell-free assay to detect luciferase inhibitors (Auld, et al., Proc Natl Acad Sci USA 2010, 107, 4878-4883) and by western blot analysis to detect gel mobility changes of the luciferase reporter, consistent with inhibition of N-linked glycosylation. This approach identified one aminobenzamidosulfonamide compound that blocked N-linked glycosylation.
(§2) To better understand the connection between structure and activity, analogs were prepared and tested in the D54-ERLucT cell based assay for inhibition of N-linked glycosylation (FIG. 1B). The assay was used to estimate and compare AC40 values among analogs and to guide the design of improved compounds that inhibited N-linked glycosylation. This effort generated 36 unique compounds with modifications to the amine component of the sulfonamide functionality (red), the pyrrolidine moiety (blue) or the methylaminothiazole group (green). Generally, incorporation of larger sulfonamides (i.e., larger secondary amines appended to the sulphone) was not well tolerated, resulting in erosion of potency (7 analogs). However, steric interactions could be mitigated by the introduction of a hydrogen bond accepting oxygen in a larger cyclic amine. Thus, morpholine was determined to be an acceptable surrogate for the dimethylamine component of the sulfonamide (FIGS. 1A-1D). The pyrrolidine group (blue) was replaced with various alkyl, cycloalkyl, and amine groups (7 compounds). The aminothiazole moiety was derivatized most extensively of all three regions (green highlighted area, 22 analogs). […] Analogs with the highest potency in the luciferase assay were retested with western blot analysis to insure that measurements of luciferase activation corresponded to loss of N-linked glycosylation.

A short description of data set [1]: Celltiter Glo viability assay, HepG2. The format is cell-based. The settings on record: human, HepG2 cells; HEPG2, 72 h of compound exposure; read-out: Cytotoxicity Assay Mean EC50.
Source text: as §1, §2
(In ATP-based viability assays light output follows the ATP content of the culture.)

The subject of another data set is HepG2 cells. As to the kind of experiment: Celltiter Glo viability assay, HepG2. The format is cell-based. The settings on record: HEPG2 EC50 over NLG AC40.
Source text: as §1, §2

A short description of data set [2]: Celltiter Glo viability assay, HEK293. The format is cell-based. The settings on record: human, HEK293 cells; HEK293, 72 h of compound exposure; read-out: Cytotoxicity Assay Mean EC50.
Source text: as §1, §2

For a further data set, the system named is HEK293 cells. The data set can be described thus: Celltiter Glo viability assay, HEK293. The class given is cell-based. The note with it: HEK293 EC50 over NLG AC40.
Source text: as §1, §2

In general, EC50 refers to the midpoint of the concentration-response curve. With `COc1ccc2nc(NC(=O)c3cc(S(=O)(=O)N(C)C)ccc3N3CCCC3)sc2c1` [Entry 9, 5-(dimethylsulfamoyl)-N-(6-methoxy-1,3-benzothiazol-2-yl)-2-pyrrolidin-1-ylbenzamide], the “NLG Inhibition ASSAY Potency Mean AC40” value in the data set on N-linked glycosylation was determined as 13.1 µM. Besides, the “NLG Inhibition max act, %” value in the data set with N-linked glycosylation stood at 85.7%. In addition, the EC50 at 72 h in data set [1] and in data set [2] was above 30 µM each time. Besides, the “Selectivity (EC50/AC40)” value in the data set with HepG2 cells and in the data set with HEK293 cells was above 2.3 in each case.
Take `CN(C)S(=O)(=O)c1ccc(N2CCCC2)c(C(=O)Nc2cccnc2)c1` [Entry 10, 5-(dimethylsulfamoyl)-N-pyridin-3-yl-2-pyrrolidin-1-ylbenzamide]: the “NLG Inhibition max act, %” value with N-linked glycosylation amounted to 48.4%. The EC50 at 72 h in data set [1] and in data set [2] was above 30 µM each time.
In the case of `CN(C)S(=O)(=O)c1ccc(N2CCCC2)c(C(=O)Nc2ccncc2)c1` [Entry 11, 5-(dimethylsulfamoyl)-N-pyridin-4-yl-2-pyrrolidin-1-ylbenzamide], the “NLG Inhibition max act, %” value in the data set with N-linked glycosylation came to 25%. Moreover, the EC50 at 72 h in data set [1] and in data set [2] was above 30 µM in each case.
With `CN(C)S(=O)(=O)c1ccc(N2CCCC2)c(C(=O)Nc2ccccc2)c1` [Entry 12, 5-(dimethylsulfamoyl)-N-phenyl-2-pyrrolidin-1-ylbenzamide], in the data set with N-linked glycosylation, the “NLG Inhibition ASSAY Potency Mean AC40” value was found to be 1.1 µM. For the same compound, the “NLG Inhibition max act, %” value in the data set with N-linked glycosylation is recorded as 183.0%. Besides, the half-maximal effective concentration (EC50) at 72 h in data set [1] and in data set [2] was above 30 µM each time. In addition, the “Selectivity (EC50/AC40)” value with HepG2 cells and with HEK293 cells was above 27.8 in each case.
On to `Cc1ccccc1NC(=O)c1cc(S(=O)(=O)N(C)C)ccc1N1CCCC1` [Entry 13, 5-(dimethylsulfamoyl)-N-(2-methylphenyl)-2-pyrrolidin-1-ylbenzamide], for which the “NLG Inhibition max act, %” value in the data set with N-linked glycosylation worked out at 10.7%. Besides, the EC50 at 72 h in data set [1] and in data set [2] was above 30 µM each time.
On to `Cc1ccc(NC(=O)c2cc(S(=O)(=O)N(C)C)ccc2N2CCCC2)cc1` [Entry 14, 5-(dimethylsulfamoyl)-N-(4-methylphenyl)-2-pyrrolidin-1-ylbenzamide], for which, in the data set on N-linked glycosylation, the “NLG Inhibition ASSAY Potency Mean AC40” value worked out at 1.2 µM. For the same compound, the “NLG Inhibition max act, %” value in the data set with N-linked glycosylation is recorded as 305.0%. In addition, the 50% effective concentration (EC50) at 72 h in data set [1] and in data set [2] was above 30 µM in each case. The “Selectivity (EC50/AC40)” value with HepG2 cells and with HEK293 cells was above 25.0 throughout.
As for `COc1ccccc1NC(=O)c1cc(S(=O)(=O)N(C)C)ccc1N1CCCC1` [Entry 15, 5-(dimethylsulfamoyl)-N-(2-methoxyphenyl)-2-pyrrolidin-1-ylbenzamide], the “NLG Inhibition max act, %” value in the data set with N-linked glycosylation is 30.1%. Also, the 50% effective concentration (EC50) at 72 h in data set [1] and in data set [2] was above 30 µM in each case.
In the case of `COc1ccc(NC(=O)c2cc(S(=O)(=O)N(C)C)ccc2N2CCCC2)cc1` [Entry 16, 5-(dimethylsulfamoyl)-N-(4-methoxyphenyl)-2-pyrrolidin-1-ylbenzamide], the “NLG Inhibition ASSAY Potency Mean AC40” value in the data set with N-linked glycosylation was found to be 10.3 µM. For the same compound, the “NLG Inhibition max act, %” value with N-linked glycosylation was 79.9%. The EC50 at 72 h in data set [1] and in data set [2] was above 30 µM throughout. Besides, the “Selectivity (EC50/AC40)” value in the data set with HepG2 cells and in the data set with HEK293 cells was above 2.9 throughout.
For the compound `CN(C)S(=O)(=O)c1ccc(N2CCCC2)c(C(=O)Nc2ccccc2F)c1` [Entry 17, 5-(dimethylsulfamoyl)-N-(2-fluorophenyl)-2-pyrrolidin-1-ylbenzamide], the 50% effective concentration (EC50) at 72 h in data set [1] and in data set [2] was above 30 µM throughout.
As for `CN(C)S(=O)(=O)c1ccc(N2CCCC2)c(C(=O)Nc2cccc(F)c2)c1` [Entry 18, 5-(dimethylsulfamoyl)-N-(3-fluorophenyl)-2-pyrrolidin-1-ylbenzamide], the “NLG Inhibition ASSAY Potency Mean AC40” value with N-linked glycosylation was 2.6 µM. Further, the “NLG Inhibition max act, %” value with N-linked glycosylation is given as 107.7%. Also, the concentration giving a half-maximal response (EC50) at 72 h in data set [1] and in data set [2] was above 30 µM each time. Further, the “Selectivity (EC50/AC40)” value in the data set with HepG2 cells and in the data set on HEK293 cells was above 11.5 each time.
In the case of `CN(C)S(=O)(=O)c1ccc(N2CCCC2)c(C(=O)Nc2ccccc2Cl)c1` [Entry 19, 5-(dimethylsulfamoyl)-N-(2-chlorophenyl)-2-pyrrolidin-1-ylbenzamide], the “NLG Inhibition max act, %” value in the data set with N-linked glycosylation is reported as 24.7%. For the same compound, the EC50 at 72 h in data set [1] and in data set [2] was above 30 µM in each case.
With `CN(C)S(=O)(=O)c1ccc(N2CCCC2)c(C(=O)Nc2ccc(Br)cc2)c1` [Entry 20, 5-(dimethylsulfamoyl)-N-(4-bromophenyl)-2-pyrrolidin-1-ylbenzamide], in the data set with N-linked glycosylation, the “NLG Inhibition max act, %” value is 32%. The half-maximal effective concentration (EC50) at 72 h in data set [1] and in data set [2] was above 30 µM each time.
On to `CN(C)S(=O)(=O)c1ccc(N2CCCC2)c(C(=O)N2CCOCC2)c1` [Entry 21, N,N-Dimethyl-3-(morpholine-4-carbonyl)-4-(pyrrolidin-1-yl)benzenesulfonamide], for which the “NLG Inhibition max act, %” value in the data set with N-linked glycosylation was determined as 23.6%. In addition, the concentration for a half-maximal effect (EC50) at 72 h in data set [1] and in data set [2] was above 30 µM in each case.
As to `CN(C)S(=O)(=O)c1ccc(N2CCCC2)c(C(=O)NC2CCCCC2)c1` [Entry 22, N-cyclohexyl-5-(dimethylsulfamoyl)-2-pyrrolidin-1-ylbenzamide], the concentration for a half-maximal effect (EC50) at 72 h in data set [1] and in data set [2] was above 30 µM throughout.
Take `CN(C)C(=O)c1cc(S(=O)(=O)N(C)C)ccc1N1CCCC1` [Entry 23, 5-(dimethylsulfamoyl)-N,N-dimethyl-2-pyrrolidin-1-ylbenzamide]: in the data set with N-linked glycosylation, the “NLG Inhibition max act, %” value is 32.1%. Moreover, the EC50 at 72 h in data set [1] and in data set [2] was above 30 µM in each case.
